Measurements: patent publication US20250230193A1, “CYCLIC COMPOUND HAVING SELECTIVE KRAS INHIBITORY EFFECT ON HRAS AND NRAS” (CHUGAI SEIYAKU KABUSHIKI KAISHA, priority 2022, published 2025)

Legend:
[1] = target: GDP-bound HRAS wild-type protein (Homo sapiens, UniProt P01112); assay: Binding to HRAS by surface plasmon resonance (SPR), Single Cycle Kinetics; conditions: SPR; KD ratio class
[2] = test system: human lung cancer strain NCI-H441; assay: cells; conditions: NCI-H441, 96 h, read-out: NCI-H441 IC50 (nM)
[3] = target: GDP-bound NRAS wild-type protein (Homo sapiens, UniProt P01111); assay: Binding to NRAS by surface plasmon resonance (SPR), Single Cycle Kinetics; conditions: SPR; KD ratio class
Chain of GDP-bound NRAS wild-type protein (P01111 whole entry): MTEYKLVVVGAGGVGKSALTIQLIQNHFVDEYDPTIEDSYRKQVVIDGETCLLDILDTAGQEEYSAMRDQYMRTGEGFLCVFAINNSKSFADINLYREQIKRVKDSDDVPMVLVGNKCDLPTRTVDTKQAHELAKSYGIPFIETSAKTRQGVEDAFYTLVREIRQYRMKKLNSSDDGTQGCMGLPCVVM

Chain of GDP-bound HRAS wild-type protein (P01112 whole entry): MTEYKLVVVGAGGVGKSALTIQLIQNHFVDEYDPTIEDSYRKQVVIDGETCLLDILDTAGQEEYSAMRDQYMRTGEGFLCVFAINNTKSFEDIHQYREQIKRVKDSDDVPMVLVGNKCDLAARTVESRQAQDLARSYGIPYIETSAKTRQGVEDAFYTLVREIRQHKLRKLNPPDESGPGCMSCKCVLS

CCO[C@@H]1C[C@H]2C(=O)NC3(CCC3)C(=O)N(C)[C@@H](C3CCCC3)C(=O)N(C)[C@H](C(=O)N3CCOCC3)CC(=O)N(C)[C@@H](CC(C)C)C(=O)N[C@@H]([C@@H](C)CC)C(=O)N(C)CC(=O)N(C)[C@H]3C/C=C\CCN(C3=O)[C@@H](Cc3ccc(C)cc3)C(=O)N(C)CC(=O)N[C@@H](CCc3cc(F)c(C(F)(F)F)c(F)c3)C(=O)N2C1 [PP1415]
HRAS/KRAS (ratio of KD value for GDP-bound HRAS wild-type protein to KD value for KRAS) [1]: A (a compound having 10 or more and less than 20 is denoted as A) | IC50 [2]: 9.5 nM | NRAS/KRAS (ratio of KD value for GDP-bound NRAS wild-type protein to KD value for KRAS) [3]: A (a compound having 10 or more and less than 20 is denoted as A)

CCO[C@@H]1C[C@H]2C(=O)NC3(CCC3)C(=O)N(C)[C@@H](C3CCCC3)C(=O)N(C)[C@H](C(=O)N(C)C)CC(=O)N(C)[C@@H](CC)C(=O)N[C@@H]([C@@H](C)CC)C(=O)N(C)CC(=O)N(C)[C@H]3C/C=C\CCN(C3=O)[C@@H](Cc3ccc(C(F)(F)F)cc3)C(=O)N(C)CC(=O)N[C@@H](CCc3cc(F)c(Cl)c(F)c3)C(=O)N2C1 [PP1262]
HRAS/KRAS (ratio of KD value for GDP-bound HRAS wild-type protein to KD value for KRAS) [1]: B (a compound having 3 or more and less than 10 is denoted as B) | IC50 [2]: 56.7 nM | NRAS/KRAS (ratio of KD value for GDP-bound NRAS wild-type protein to KD value for KRAS) [3]: A (a compound having 10 or more and less than 20 is denoted as A)

CCO[C@@H]1C[C@H]2C(=O)NC3(CC(C)(C)C3)C(=O)N(C)[C@@H](C3CCCC3)C(=O)N(C)[C@@H](C(C)C)CC(=O)N(C)[C@@H](CC3CC3)C(=O)N[C@@H]([C@@H](C)CC)C(=O)N(C)CC(=O)N(C)[C@H]3C/C=C\CCN(C3=O)[C@@H](Cc3ccc(C(F)(F)F)cc3)C(=O)N(C)CC(=O)N[C@@H](CCc3cc(F)c(C(F)(F)F)c(F)c3)C(=O)N2C1 [PP1594]
HRAS/KRAS (ratio of KD value for GDP-bound HRAS wild-type protein to KD value for KRAS) [1]: A (a compound having 10 or more and less than 20 is denoted as A) | IC50 [2]: 48.8 nM | NRAS/KRAS (ratio of KD value for GDP-bound NRAS wild-type protein to KD value for KRAS) [3]: A (a compound having 10 or more and less than 20 is denoted as A)

CCO[C@@H]1C[C@H]2C(=O)NC3(CCC3)C(=O)N(C)[C@@H](C3CCCC3)C(=O)N(C)[C@H](C(=O)N(C)C)CC(=O)N(C)[C@@H](CC3CC3)C(=O)N[C@@H]([C@@H](C)CC)C(=O)N(C)CC(=O)N(C)[C@H]3C/C=C\CCN(C3=O)[C@@H](Cc3ccc(F)cc3)C(=O)N(C)CC(=O)N[C@@H](CCc3ccc(Cl)c(Cl)c3)C(=O)N2C1 [PP1478]
HRAS/KRAS (ratio of KD value for GDP-bound HRAS wild-type protein to KD value for KRAS) [1]: A (a compound having 10 or more and less than 20 is denoted as A) | IC50 [2]: 102 nM | NRAS/KRAS (ratio of KD value for GDP-bound NRAS wild-type protein to KD value for KRAS) [3]: A (a compound having 10 or more and less than 20 is denoted as A)

CC[C@H](C)[C@@H]1NC(=O)[C@H](CC(C)C)N(C)C(=O)C[C@@H](C(=O)N(C)C)N(C)C(=O)[C@H](C2CCCC2)N(C)C(=O)C2(CC(C)(C)C2)NC(=O)[C@@H]2C[C@@H](F)CN2C(=O)[C@H](CCc2cc(F)c(C(F)(F)F)c(F)c2)NC(=O)CN(C)C(=O)[C@H](Cc2ccc(C(F)(F)F)cc2)N2CC/C=C\C[C@@H](C2=O)N(C)C(=O)CN(C)C1=O [PP1566]
HRAS/KRAS (ratio of KD value for GDP-bound HRAS wild-type protein to KD value for KRAS) [1]: A (a compound having 10 or more and less than 20 is denoted as A) | IC50 [2]: 2.3 nM | NRAS/KRAS (ratio of KD value for GDP-bound NRAS wild-type protein to KD value for KRAS) [3]: A (a compound having 10 or more and less than 20 is denoted as A)

CCO[C@@H]1C[C@H]2C(=O)NC3(CCCC3)C(=O)N(C)[C@@H](C3CCCC3)C(=O)N(C)[C@H](C(=O)N(C)C)CC(=O)N(C)[C@@H](CC)C(=O)N[C@@H]([C@@H](C)CC)C(=O)N(C)CC(=O)N(C)[C@H]3C[C@H](C)C(C)CN(C3=O)[C@@H](Cc3ccc(C(F)(F)F)cc3)C(=O)N(C)CC(=O)N[C@@H](CCc3cc(F)c(C(F)(F)F)c(F)c3)C(=O)N2C1 (stereo partly drawn) [PP1347]
HRAS/KRAS (ratio of KD value for GDP-bound HRAS wild-type protein to KD value for KRAS) [1]: B (a compound having 3 or more and less than 10 is denoted as B) | IC50 [2]: 3.6 nM | NRAS/KRAS (ratio of KD value for GDP-bound NRAS wild-type protein to KD value for KRAS) [3]: B (a compound having 3 or more and less than 10 is denoted as B)

CCO[C@@H]1C[C@H]2C(=O)NC3(CCC3)C(=O)N(C)[C@@H](C(CC)CC)C(=O)N(C)[C@H](C(=O)N(C)C)CC(=O)N(C)[C@@H](CC3CC3)C(=O)N[C@@H]([C@@H](C)CC)C(=O)N(C)CC(=O)N(C)[C@H]3C/C=C\CCN(C3=O)[C@@H](Cc3ccc(C(F)(F)F)cc3)C(=O)N(C)CC(=O)N[C@@H](CCc3ccc4sccc4c3)C(=O)N2C1 [PP1227]
HRAS/KRAS (ratio of KD value for GDP-bound HRAS wild-type protein to KD value for KRAS) [1]: A (a compound having 10 or more and less than 20 is denoted as A) | IC50 [2]: 128 nM | NRAS/KRAS (ratio of KD value for GDP-bound NRAS wild-type protein to KD value for KRAS) [3]: A (a compound having 10 or more and less than 20 is denoted as A)

CC[C@H](C)[C@@H]1NC(=O)[C@H](CC2CC2)N(C)C(=O)C[C@@H](C)N(C)C(=O)[C@H](C2CCCC2)N(C)C(=O)C2(CCC2)NC(=O)[C@H](CCC(F)F)N(C)C(=O)[C@H](CCc2cc(F)c(C(F)(F)F)c(F)c2)NC(=O)CN(C)C(=O)[C@H](Cc2ccc(C(F)(F)F)cc2)N2CC/C=C\C[C@@H](C2=O)N(C)C(=O)CN(C)C1=O [PP1404]
HRAS/KRAS (ratio of KD value for GDP-bound HRAS wild-type protein to KD value for KRAS) [1]: A (a compound having 10 or more and less than 20 is denoted as A) | IC50 [2]: 498 nM | NRAS/KRAS (ratio of KD value for GDP-bound NRAS wild-type protein to KD value for KRAS) [3]: A (a compound having 10 or more and less than 20 is denoted as A)

CCO[C@@H]1C[C@H]2C(=O)NC3(CCCC3)C(=O)N(C)[C@@H](C3CCCC3)C(=O)N(C)[C@H](C(=O)N3CCOCC3)CC(=O)N(C)[C@@H](CC)C(=O)N[C@@H]([C@@H](C)CC)C(=O)N(C)CC(=O)N(C)[C@H]3CC[C@@H](C)CN(C3=O)[C@@H](Cc3ccc(C(F)(F)F)cc3)C(=O)N(C)CC(=O)N[C@@H](CCc3cc(F)c(C(F)(F)F)c(F)c3)C(=O)N2C1 [PP1371]
HRAS/KRAS (ratio of KD value for GDP-bound HRAS wild-type protein to KD value for KRAS) [1]: B (a compound having 3 or more and less than 10 is denoted as B) | IC50 [2]: 5.1 nM | NRAS/KRAS (ratio of KD value for GDP-bound NRAS wild-type protein to KD value for KRAS) [3]: A (a compound having 10 or more and less than 20 is denoted as A)

CCO[C@@H]1C[C@H]2C(=O)NC3(CCC3)C(=O)N(C)[C@@H](C3CCCC3)C(=O)N(C)[C@H](C(=O)N(C)C)CC(=O)N(C)[C@@H](CC(C)C)C(=O)N[C@@H]([C@@H](C)CC)C(=O)N(C)CC(=O)N(C)[C@H]3C/C=C\CCN(C3=O)[C@@H](Cc3ccc(C(F)(F)F)cc3)C(=O)N(C)CC(=O)N[C@@H](CCc3cc(F)c(Cl)c(F)c3)C(=O)N2C1 [PP1263]
HRAS/KRAS (ratio of KD value for GDP-bound HRAS wild-type protein to KD value for KRAS) [1]: A (a compound having 10 or more and less than 20 is denoted as A) | IC50 [2]: 18.9 nM | NRAS/KRAS (ratio of KD value for GDP-bound NRAS wild-type protein to KD value for KRAS) [3]: A (a compound having 10 or more and less than 20 is denoted as A)

CCCOC[C@H]1C(=O)N[C@@H]([C@@H](C)CC)C(=O)N(C)CC(=O)N(C)[C@H]2C/C=C\CCN(C2=O)[C@@H](Cc2ccc(C)cc2)C(=O)N(C)CC(=O)N[C@@H](CCc2cc(F)c(C(F)(F)F)c(F)c2)C(=O)N2C[C@H](OCC)C[C@H]2C(=O)NC2(CC(C)(C)C2)C(=O)N(C)[C@@H](C2CCCC2)C(=O)N(C)[C@H](C(=O)N(C)CC)CC(=O)N1C [PP1577]
HRAS/KRAS (ratio of KD value for GDP-bound HRAS wild-type protein to KD value for KRAS) [1]: B (a compound having 3 or more and less than 10 is denoted as B) | IC50 [2]: 6.7 nM | NRAS/KRAS (ratio of KD value for GDP-bound NRAS wild-type protein to KD value for KRAS) [3]: B (a compound having 3 or more and less than 10 is denoted as B)

CCO[C@@H]1C[C@H]2C(=O)NC3(CC(C)(C)C3)C(=O)N(C)[C@@H](C3CCCC3)C(=O)N(C)[C@H](C(C)C)CC(=O)N(C)[C@@H](CC)C(=O)N[C@@H]([C@@H](C)CC)C(=O)N(C)CC(=O)N(C)[C@H]3C/C=C\CCN(C3=O)[C@@H](CC3CCCCC3)C(=O)N(C)CC(=O)N[C@@H](CCc3cc(F)c(C(F)(F)F)c(F)c3)C(=O)N2C1 [PP1603]
HRAS/KRAS (ratio of KD value for GDP-bound HRAS wild-type protein to KD value for KRAS) [1]: B (a compound having 3 or more and less than 10 is denoted as B) | IC50 [2]: 132 nM | NRAS/KRAS (ratio of KD value for GDP-bound NRAS wild-type protein to KD value for KRAS) [3]: B (a compound having 3 or more and less than 10 is denoted as B)

CCO[C@@H]1C[C@H]2C(=O)NC3(CCCC3)C(=O)N(C)[C@@H](C(CC)CC)C(=O)N(C)[C@H](C(=O)N3CCCC3)CC(=O)N(C)[C@@H](COC)C(=O)N[C@@H]([C@@H](C)CC)C(=O)N(C)CC(=O)N(C)[C@H]3C/C=C\CCN(C3=O)[C@@H](CC3CCCCC3)C(=O)N(C)CC(=O)N[C@@H](CCc3cc(F)c(C(F)(F)F)c(F)c3)C(=O)N2C1 [PP1439]
HRAS/KRAS (ratio of KD value for GDP-bound HRAS wild-type protein to KD value for KRAS) [1]: A (a compound having 10 or more and less than 20 is denoted as A) | IC50 [2]: 87.3 nM | NRAS/KRAS (ratio of KD value for GDP-bound NRAS wild-type protein to KD value for KRAS) [3]: AA (a compound having 20 or more is denoted as AA)

CCC[C@H]1C(=O)N[C@@H]([C@@H](C)CC)C(=O)N(C)CC(=O)N(C)[C@H]2C/C=C\CCN(C2=O)[C@@H](Cc2ccc(C(F)(F)F)cc2)C(=O)N(C)CC(=O)N[C@@H](CCc2ccc3sccc3c2)C(=O)N2C[C@H](OCC)C[C@H]2C(=O)NC2(CCC2)C(=O)N(C)[C@@H](C(CC)CC)C(=O)N(C)[C@H](C(=O)N(C)C)CC(=O)N1C [PP1224]
HRAS/KRAS (ratio of KD value for GDP-bound HRAS wild-type protein to KD value for KRAS) [1]: A (a compound having 10 or more and less than 20 is denoted as A) | IC50 [2]: 122 nM | NRAS/KRAS (ratio of KD value for GDP-bound NRAS wild-type protein to KD value for KRAS) [3]: A (a compound having 10 or more and less than 20 is denoted as A)
